Values quoted from earlier work in US20240252571A1, “Hemp Essential Oil” (priority 2023, published 2024).
“Also recorded” adds a separate entry of the source. Read-outs that look alike come from different tables or passages of the source. Where a SMILES comes first, the peptide text is derived from it.

Legend:
mild AD = conditions: pediatric population
SZ95 sebocytes [1] = conditions: for effect on the lipid synthesis-inhibitory (lipostatic) action of CBD: coapplication with CBD
[2] = test system: intracellular calcium concentration of SZ95 sebocytes; conditions: for effect on the CBD-induced increase of [Ca2+]IC: with CBD
itching = conditions: murine models
Enterococcus faecalis = conditions: E. faecalis
[3] = test system: Methicillin-resistant Staphylococcus epidermidis (MRSE)
[4] = test system: Methicillin-resistant Staphylococcus aureus (MRSA)
[5] = test system: Interleukin-1β, -6, -8, tumor necrosis factor α release; conditions: inducers UVA, UVB, chemical, C. acnes
[6] = test system: Human dermal fibroblasts (HDFs); conditions: compared with vitamin C
human skin equivalents = conditions: compared with CBD
[7] = CBD 1-10% gel, monoarthritic rat; plasma concentration linear with dose
[8] = test system: ionic currents of SZ95 sebocytes; conditions: CBD 10 μM, voltage ramp, -90 and +90 mV
SZ95 sebocytes [9] = test system: SZ95 sebocytes
human sebaceous glands = conditions: ex vivo hSOC
[10] = in vitro diffusion, human tissue
Listeria monocytogenes = conditions: L. monocytogenes
mice epidermis = conditions: topical application
[11] = test system: Normal Human Epidermal Keratinocytes (NHEK); conditions: HMOX1 most upregulated
[12] = test system: TNFA, IL1B and IL6 expression in human sebocytes
[13] = ethosomal carriers, murine model
[14] = test system: allergic contact dermatitis model; conditions: experimental allergic contact dermatitis model
[15] = lower CBD concentrations, 1-100 nM

Structure (SMILES): O=C(CCCCCCCC(=O)NCCO)NCCO [Adelmidrol]
- efficacy in mild AD (mild AD): effective in treating mild AD

Structure (SMILES): Cc1c(C(=O)Nc2cccc(C(F)(F)F)c2)cc(-c2ccccc2)n1CCCN1CCOCC1 [HC067047]
- basal lipid synthesis (SZ95 sebocytes [1]; TRPV4 antagonist alone): did not affect basal lipid synthesis
- effect on the lipid synthesis-inhibitory (lipostatic) action of CBD (SZ95 sebocytes [1]): prevented
- effect on the CBD-induced increase of [Ca2+]IC [2]: antagonized

Structure (SMILES): CCCCCCCCCCCCCCCC(=O)NCCO [PEA]
- itching (itching): reduce itching

Structure (SMILES): Cc1c(C(=O)NN2CCCCC2)nn(-c2ccc(Cl)cc2Cl)c1-c1ccc(I)cc1 [AM251]
- effect on the lipid synthesis-inhibitory (lipostatic) action of CBD (SZ95 sebocytes [1]): neither CB1- nor CB2-specific antagonists (AM251 and AM630) were able to antagonize

Structure (SMILES): CC[C@H](C)[C@H](N)C1=N[C@H](C(=O)N[C@@H](CC(C)C)C(=O)N[C@H](CCC(=O)O)C(=O)N[C@H](C(=O)N[C@H]2CCCCNC(=O)[C@H](CC(N)=O)NC(=O)[C@@H](CC(=O)O)NC(=O)[C@H](Cc3cnc[nH]3)NC(=O)[C@@H](Cc3ccccc3)NC(=O)[C@H]([C@@H](C)CC)NC(=O)[C@@H](CCCN)NC2=O)[C@@H](C)CC)CS1 [BAC, Bacitracin] (HELM PEPTIDE1{[CC[C@H](C)[C@H](N)C1=N[C@H](C(=O)[*:2])CS1].L.[dE].I.K.[NCCC[C@@H](N[*:1])C(=O)[*:2]].I.[dF].H.[dD].N}$PEPTIDE1,PEPTIDE1,5:R3-11:R2$$$V2.0)
- reduction of MIC of BAC versus BAC alone (Enterococcus faecalis; combined with ½ MIC of C3D): ≥ 64 fold
- reduction of MIC of BAC versus BAC alone ([3]; combined with ½ MIC of C3D): ≥ 64 fold
- reduction of MIC of BAC versus BAC alone ([4]; MRSA, combined with ½ MIC of C3D): ≥ 64 fold

Structure (SMILES): CCCCCc1cc(O)c(C/C=C(\C)CCC=C(C)C)c(O)c1 [CBG, cannabigerol]
- pro-inflammatory cytokine release [5]: inhibits
- reactive oxygen species levels [6]: reduce reactive oxygen species levels in HDFs better than vitamin C
- activity against a variety of MRSA strains [4]: potent activity
- genes regulated (human skin equivalents): regulates more genes than CBD

Structure (SMILES): C=C(C)[C@@H]1CCC(C)=C[C@H]1c1c(O)cc(CCCCC)cc1O [CBD, cannabidiol]
- absorption after topical application [7]: well-absorbed
- lipid synthesis induced by arachidonic acid (AA) (SZ95 sebocytes [1]): effectively inhibited
- lipid synthesis induced by the combination of linoleic acid and testosterone (LA-T) (SZ95 sebocytes [1]): effectively inhibited
- lipogenesis (SZ95 sebocytes [1]; 10 μM CBD, 6-day treatments): decreased
- lipogenesis (SZ95 sebocytes [1]; 50 μM CBD): decreased lipogenesis
- basal neutral (sebaceous) lipid synthesis (SZ95 sebocytes [1]; CBD 1-10 μM, 24-hour treatment): neither semiquantitative Oil Red O nor quantitative Nile Red staining indicated changes; also recorded: no changes
- inhibition of the lipogenic action of AEA (SZ95 sebocytes [1]; CBD 1-10 μM, dose-dependent): markedly inhibited; also recorded: quell the lipogenic actions in a dose-dependent manner
- AA-enhanced "pathological" lipogenesis (lipidome) (SZ95 sebocytes [1]; acne-like conditions with AA): almost completely normalized
- lipid synthesis induced by arachidonic acid (AA) (SZ95 sebocytes [1]; listed as CDI): inhibit extraneous lipid synthesis
- lipid synthesis induced by the combination of linoleic acid and testosterone (LA-T) (SZ95 sebocytes [1]; listed as CDI): inhibit extraneous lipid synthesis
- AA-induced lipid synthesis (SZ95 sebocytes [1]; [15]): did not influence
- basal lipid synthesis (SZ95 sebocytes [1]; [15]): did not influence
- Minimum Inhibitory Concentration (MIC) (Enterococcus faecalis): 8 µg/mL
- membrane currents [8]: induced a mostly outwardly rectifying current and a positive shift in the reversal potential
- Minimum Inhibitory Concentration (MIC) [3]: 8 µg/mL
- cell number (SZ95 sebocytes [9]; 10 μM CBD, elongated application, 6-day treatments): decreased; also recorded: reduced
- cytotoxicity (SZ95 sebocytes [9]; 50 μM CBD): evoked apoptosis-driven cytotoxicity
- cellular viability, apoptosis, necrosis (SZ95 sebocytes [9]; CBD 1-10 μM): did not decrease cellular viability or induce either apoptosis or necrosis
- proliferation of SZ95 sebocytes (SZ95 sebocytes [9]; CBD 1-10 μM): significantly reduce
- basal lipogenesis in situ (human sebaceous glands): decreased basal lipogenesis
- expression of the proliferation marker MKI67 (human sebaceous glands): markedly suppressed
- lipogenic action of AEA in situ (human sebaceous glands): completely prevented
- reactive oxygen species levels [6]: reduce reactive oxygen species levels in HDFs better than vitamin C
- intracellular calcium concentration ([Ca2+]IC) [2]: significantly increased
- peroxide-induced reduction of polyunsaturated fatty acids in the cell membrane (human keratinocytes): protective effect
- oxidative stress response (human keratinocytes; UVB irradiation and hydrogen peroxide): balance the oxidative stress response
- permeation [10]: demonstrated CBD's permeation potential
- Minimum Inhibitory Concentration (MIC) (Listeria monocytogenes): 4 µg/mL
- levels of HMOX1 and expression of keratins 16 and 17 (mice epidermis): increased
- activity against a variety of MRSA strains [4]: potent activity
- Minimum Inhibitory Concentration (MIC) ([4]; MRSA): 4 µg/mL
- expression of NRF2 target genes [11]: induced the expression of several NRF2 target genes
- IL1B expression ([12]; LPS-induced): normalize
- IL6 expression ([12]; LPS-induced): normalize
- elevation of TNFA expression ([12]; induced by TLR2 activator lipoteichoic acid (LTA)): completely prevented
- elevation of TNFA expression ([12]; induced by TLR4 activator LPS): completely prevented
- elevation of TNFA expression ([12]; induced by pro-acne LA-T combination): prevent
- transdermal delivery [13]: successful transdermal delivery
- anti-inflammatory properties [14]: exhibit anti-inflammatory properties

Structure (SMILES): CCCCC/C=C\C/C=C\C/C=C\C/C=C\CCCC(=O)NCCO [AEA, N-arachidonoyl ethanolamide]
- lipid production in human sebocytes (SZ95 sebocytes [1]; low concentrations): stimulate lipid production
- apoptosis of human sebocytes (SZ95 sebocytes [9]; higher levels): induces apoptosis

Structure (SMILES): COc1cc(CNC(=O)CCCC/C=C/C(C)C)ccc1O [capsaicin]
- lipostatic action by activation of TRPV1 (SZ95 sebocytes [1]): potent lipostatic actions

Structure (SMILES): CCCCCc1cc(O)c2c(c1)OC(C)(C)[C@@H]1CCC(C)=C[C@@H]21 [THC, tetrahydrocannabinol]
- itching (itching): reduce itching

Structure (SMILES): COc1ccc(C(=O)c2c(C)n(CCN3CCOCC3)c3cc(I)ccc23)cc1 [AM630]
- effect on the lipid synthesis-inhibitory (lipostatic) action of CBD (SZ95 sebocytes [1]): neither CB1- nor CB2-specific antagonists (AM251 and AM630) were able to antagonize

Structure (SMILES): N.N.N.N.N.N.N.N.N.N.N.N.N.N.[Cl-].[Cl-].[Cl-].[Cl-].[Cl-].[Cl-].[O-2].[O-2].[Ru+3].[Ru+3].[Ru+4] [ruthenium red]
- effect on the CBD-induced increase of [Ca2+]IC [2]: antagonized
